Series [1] in a line: Storage stability of magnesium R-(+)-α-lipoate at room temperature / ambient humidity.
Excerpt: Test samples of magnesium R-(+)-α-lipoate were stored at ambient temperatures for two years.
For series [2], the system named is glucose assimilation. Conditions: comparable to the effect of 200 nM insulin; cited from earlier work.
Series [3] deals with pyruvate dehydrogenase. Conditions: cited from earlier work.
Series [4] concerns glucose transporters (GLUT 1 and GLUT 4). Particulars: cited from earlier work.
For series [5] the following is noted: closed and sealed amber container, cited from earlier work.
Series [6] has as its system neuropathy impairment score. Particulars: 600 mg daily for 6 months, 509 patients; cited from earlier work.
For series [7], the system named is cardiac autonomic neuropathy. Conditions: 800 mg daily, 4 months, diabetic patients with cardiac autonomic neuropathy; cited from earlier work.
Series [8] relates to nerve function. Particulars: 600 or 1200 mg daily, 24 months; cited from earlier work.
The subject of series [9] is neuropathic symptoms and deficits. Conditions: 600 mg/day over a 3-week period; cited from earlier work.
The subject of series [10] is diabetic polyneuropathy. Conditions: 3-week period; cited from earlier work.
Series [11] deals with diabetic neuropathy. Particulars: >600 mg/day; cited from earlier work.
Setting [12] is: ambient temperatures, two years.

Read-outs that look alike come from different tables or passages of the source.

Take `O=C(O)CCCC[C@@H]1CCSS1` [magnesium R-(+)-α-lipoate, magnesium R-(+)-alpha-lipoate]: the hygroscopicity result in series [1] (ambient environments, relative humidities as high as 75%) is “not hygroscopic”. Besides, in series [1] (setting [12]), the “chemical composition, purity and chiral purity on storage” value was “did not change during storage under these conditions”; the “physical state / appearance and properties on storage” value is “did not change over time”; the “visible signs of polymerization or degradation” value is recorded as “no visible signs of polymerization or degradation”. The “physical appearance and properties on storage” value in series [1] (room temperature, relative humidities as high as 75%, one week) is “did not change during storage”.

As for `O=C(O)CCCCC1CCSS1` (stereo not drawn) [R-(+)-α-lipoic acid], the “stimulation of glucose assimilation (factor)” value in series [2] was “greater than 2”. In addition, the “visible signs of polymerization or degradation” value in [1] (setting [12]) was “clumping of the compound, development of a strong sulfur odor, and formation of small and visible gummy balls of dark yellow material”. In addition, the “activity of pyruvate dehydrogenase” value in [3] was “increased”. Besides, the “translocation of GLUT 1 and GLUT 4 from the cytosol to the plasma membrane” value in series [4] is given as “stimulated”. Moreover, the storage stability entry in [5] (refrigerated temperatures) is “must be used within a few months”.

Consider S-(−)-α-lipoic acid [S-(−)-α-lipoate], for which the “stimulation of glucose assimilation (factor)” value in series [2] is “little or no change”. Also, the “activity of pyruvate dehydrogenase” value in series [3] was “inhibited”. Also, in series [4], the “total content of glucose transporters” value is listed as “appeared to lower”; the “translocation of GLUT 1 and GLUT 4 from the cytosol to the plasma membrane” value is recorded as “had no effect or has an inhibiting effect”.

For `O=C(O)CCCCC1CCSS1` (stereo not drawn) [α-lipoic acid, 1,2-dithiocyclopentane-3-valeric acid], in series [6], the neuropathy impairment score result is “improved neuropathy impairment score as early as 19 days”. Moreover, the heart rate variability result in [7] was “significantly improved”. Besides, the nerve function result in [8] is given as “improved nerve function”. Further, in [9], the “positive neuropathic symptoms and neuropathic deficits; safety” value was “safe and effective”. Also, the storage stability result in series [5] (room temperature) was “a year or longer”. In addition, in series [10], the “sensory symptoms (Total Symptom Score)” value is “improved sensory symptoms”. In addition, in series [11], the patient symptoms result was “significantly improved patient symptoms”.

The values above are taken from US8222432B2 (BioLink Life Sciences, Inc., priority 2008, dated 2012).
